Experimental data as given in ChEMBL document CHEMBL4152375, “Compromising the plasma membrane as a secondary target in photodynamic therapy-induced necrosis” (Bioorg Med Chem, 2018).
Calls of active or inactive are those of the source. No cut-off for these calls is given here.

What was measured:
[1] = system: CHO; experiment: Induction of plasma membrane-mediated necrosis in CHO cells assessed as swelling of nuclei at 1 uM incubated for overnight followed by compound washout and subsequent 150W irradiation for 30 secs by fluorescence microscopic analysis; format: functional, cell-based; conditions: Cricetulus griseus
[2] = system: CHO; experiment: Induction of plasma membrane-mediated necrosis in EthD1-labelled CHO cells at 1 uM incubated for two hrs at 4 degC followed by compound washout and subsequent 150W irradiation for 30 secs by fluorescence microscopic analysis; format: functional, cell-based; conditions: Cricetulus griseus
[3] = Drug uptake in endosome of fluorescein-dextran-labelled CHO cells at 1 uM incubated for overnight followed by compound washout measured by fluorescence microscopic analysis; format: ADME, subcellular, Cricetulus griseus; conditions: chinese hamster
[4] = system: CHO; experiment: Induction of plasma membrane-mediated necrosis in EthD1-labelled CHO cells assessed as swelling of nuclei at 1 uM incubated for overnight followed by compound washout and subsequent 150W irradiation for 30 secs by fluorescence microscopic analysis; format: functional, cell-based; conditions: Cricetulus griseus
[5] = Dark toxicity in CHO cells at 1 uM incubated for overnight followed by compound washout by fluorescence microscopic analysis; format: cell-based, Cricetulus griseus; conditions: chinese hamster
[6] = system: CHO; experiment: Induction of plasma membrane-mediated necrosis in CHO cells at 1 uM incubated for overnight followed by compound washout with PBS 5% FBS and subsequent 150W irradiation for 30 secs by fluorescence microscopic analysis; format: functional, cell-based; conditions: Cricetulus griseus
[7] = Drug uptake in endosome of CHO cells at 1 uM incubated for overnight followed by compound washout measured by fluorescence microscopic analysis; format: ADME, subcellular, Cricetulus griseus; conditions: chinese hamster
[8] = Drug uptake in lysosome of fluorescein-dextran-labelled CHO cells at 1 uM incubated for overnight followed by compound washout measured by fluorescence microscopic analysis; format: ADME, subcellular, Cricetulus griseus; conditions: chinese hamster

CN1CC2c3nc(c(-c4c(F)c(F)c(S[C@@H]5O[C@H](CO)[C@@H](O)[C@H](O)[C@H]5O)c(F)c4F)c4ccc([nH]4)c(-c4c(F)c(F)c(S[C@@H]5O[C@H](CO)[C@@H](O)[C@H](O)[C@H]5O)c(F)c4F)c4nc(c(-c5c(F)c(F)c(S[C@@H]6O[C@H](CO)[C@@H](O)[C@H](O)[C@H]6O)c(F)c5F)c5ccc([nH]5)c3-c3c(F)c(F)c(S[C@@H]5O[C@H](CO)[C@@H](O)[C@H](O)[C@H]5O)c(F)c3F)C=C4)C2C1 (stereo partly drawn)
Activity [1]: Active | Activity [2]: Active | Drug uptake [3]: Active | Activity [4]: Active | Activity [5]: Non-Toxic | Activity [6]: inactive | Drug uptake [7]: Active | Drug uptake [8]: Active
